From US20250262201A1, “COMPOUNDS AND METHODS USEFUL FOR STABILIZING PHENYLALANINE HYDROXYLASE MUTATIONS” (Agios Pharmaceuticals, Inc., priority 2022, published 2025) come the findings set out here.

The target of one assay is T1, human PAH with the R408W mutation (Homo sapiens, UniProt P00439, R408W).
T1 construct: expressed in transfected cells
T1 sequence (P00439 1-452 R408W): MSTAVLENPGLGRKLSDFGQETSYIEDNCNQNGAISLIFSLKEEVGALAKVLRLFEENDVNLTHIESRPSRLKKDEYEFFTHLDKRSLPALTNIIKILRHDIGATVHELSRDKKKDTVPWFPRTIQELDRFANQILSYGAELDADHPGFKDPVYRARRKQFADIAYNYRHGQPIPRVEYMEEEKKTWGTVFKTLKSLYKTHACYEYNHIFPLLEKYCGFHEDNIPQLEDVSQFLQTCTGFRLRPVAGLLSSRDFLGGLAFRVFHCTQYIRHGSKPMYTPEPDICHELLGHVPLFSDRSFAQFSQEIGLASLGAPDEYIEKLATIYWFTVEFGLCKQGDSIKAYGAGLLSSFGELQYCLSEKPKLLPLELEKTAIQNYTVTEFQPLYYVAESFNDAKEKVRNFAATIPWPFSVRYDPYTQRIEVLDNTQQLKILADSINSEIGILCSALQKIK
The experiment in a line: Cell Based Phenylalanine Flux Assay.
Details: not given
On the set-up: scale not given here.
As to `Cn1ncc(C(=O)N2CCc3[nH]cnc3C2c2ccc3ccccc3n2)c1C(F)F` (centres unmarked), the AC50 lay in the range of 1 to 5 µM.

Staying with this assay, now noted: A375 R408W cells, 24 hrs with compound, then 20 μM sepiapterin and 800 μM 13C9,15N-Phenylalanine for 4 hours; 13C-Tyrosine by LC-MS; average where tested multiple times.
With `Cc1nnc(CC(=O)N2CCc3[nH]cnc3C2c2cn3ccccc3n2)o1` (centres unmarked), the AC50 entry is “E, E”. Take `Cc1ocnc1CC(=O)N1CCc2[nH]cnc2C1c1cn2ccccc2n1` (centres unmarked): the AC50 result is listed as “E, E”. Take `O=C(CC1(O)CCC1)N1CCc2[nH]cnc2C1c1cn2ccccc2n1` (centres unmarked): the AC50 entry is listed as “E, E”. `Nc1nc(C(F)(F)F)c(C(=O)N2CCc3[nH]cnc3C2c2cn3ccccc3n2)o1` (centres unmarked): the AC50 result is listed as “E, E”.

With `CC(C)(O)c1nc(C(F)(F)F)c(C(=O)N2CCc3[nH]cnc3C2c2ccc3ccccc3n2)o1` (centres unmarked), the AC50 entry is “E, E”. With `Cn1ccc(-c2nc(C(F)F)c(C(=O)N3CCc4[nH]cnc4C3c3ncc4ccccc4n3)o2)n1` (centres unmarked), the AC50 entry was “E, E”. The same measure, in the same setting: as for `CC(C)(O)c1nc(C(F)F)c(C(=O)N2CCc3[nH]cnc3C2c2ncc3ccccc3n2)o1` (centres unmarked), the entry is “E, E”. `Cc1nc(C(=O)N2CCc3[nH]cnc3C2c2ncc3ccccc3n2)n(C)n1` (centres unmarked): the AC50 entry is listed as “E, E”. Still for that read-out and setting: as for `Cn1cc(-c2nc(C(F)(F)F)c(C(=O)N3CCc4[nH]cnc4C3c3ncc4ccccc4n3)o2)cn1` (centres unmarked), the entry is “E, E”; as for `Cn1cnc(-c2nc(C(F)F)c(C(=O)N3CCc4[nH]cnc4C3c3ncc4ccccc4n3)o2)c1` (centres unmarked), “E, E”; as for `O=C(c1oc(-c2ncccn2)nc1C(F)F)N1CCc2[nH]cnc2C1c1ncc2ccccc2n1` (centres unmarked), “E, E”. The same measure, in the same setting: as for `O=C(c1oc(-c2ccncn2)nc1C(F)F)N1CCc2[nH]cnc2C1c1ncc2ccccc2n1` (centres unmarked), the entry is “E, E”; as for `O=C(c1oc(-c2cncnc2)nc1C(F)F)N1CCc2[nH]cnc2C1c1ncc2ccccc2n1` (centres unmarked), “E, E”; as for `CC(C)(O)c1nc(C(F)(F)F)c(C(=O)N2CCc3[nH]cnc3C2c2ncc3ccccc3n2)o1` (centres unmarked), “E, E”. Still for that read-out and setting: as for `O=C(c1ccnn1C(F)F)N1CCc2[nH]cnc2C1c1ncc2ccccc2n1` (centres unmarked), the entry is “E, E”. Take `O=C(c1oc(-c2ccccn2)nc1C(F)(F)F)N1CCc2[nH]cnc2C1c1ncc2ccccc2n1` (centres unmarked): the AC50 entry is reported as “E, E”. Still for that read-out and setting: as for `Cn1cc(-c2nc(C(F)F)c(C(=O)N3CCc4[nH]cnc4C3c3ncc4ccccc4n3)o2)cn1` (centres unmarked), the entry is “E, E”; as for `CN1CCN(c2nc(C(F)F)c(C(=O)N3CCc4[nH]cnc4C3c3ncc4ccccc4n3)o2)CC1` (centres unmarked), “E, E”. On the same count and under the same terms, with `O=C(c1oc(-c2ccc(F)cn2)nc1C(F)F)N1CCc2[nH]cnc2C1c1ncc2ccccc2n1` (centres unmarked) the entry was “E, E”; with `COc1ccc(-c2nc(C(F)F)c(C(=O)N3CCc4[nH]cnc4C3c3ncc4ccccc4n3)o2)nc1` (centres unmarked), “E, E”. Still for that read-out and setting: as for `O=C(c1oc(-c2cnccn2)nc1C(F)F)N1CCc2[nH]cnc2C1c1ncc2ccccc2n1` (centres unmarked), the entry is “E, E”. In the case of `O=C(c1oc(-c2ccccn2)nc1C(F)F)N1CCc2[nH]cnc2C1c1ncc2ccccc2n1` (centres unmarked), the AC50 result is “E, E”.

For the compound `O=C(c1oc(-c2cccnc2)nc1C(F)F)N1CCc2[nH]cnc2C1c1ncc2ccccc2n1` (centres unmarked), the AC50 result is listed as “E, E”. Same read-out and setting: with `O=C(c1oc(-c2ccncc2)nc1C(F)F)N1CCc2[nH]cnc2C1c1ncc2ccccc2n1` (centres unmarked) the entry was “E, E”. On to `O=C(c1oc(N2CCOCC2)nc1C(F)F)N1CCc2[nH]cnc2C1c1ncc2ccccc2n1` (centres unmarked), for which the AC50 entry is on record as “E, E”.

On to `O=C(c1ocnc1C(F)F)N1CCc2[nH]cnc2C1c1ncc2ccccc2n1` (centres unmarked), for which the AC50 result was “E, E”. Same read-out and setting: as for `O=C(c1ocnc1C(F)(F)F)N1CCc2[nH]cnc2C1c1ncc2ccccc2n1` (centres unmarked), the entry is “E, E”.

Staying with this assay, now noted: A375 R408W cells, 24 hrs with compound, then 20 μM sepiapterin and 800 μM 13C9,15N-Phenylalanine for 4 hours; 13C-Tyrosine by LC-MS; average where tested multiple times; read-out: AC50.
Take `O=C(c1nnc(-c2cnn(S(=O)(=O)C3CC3)c2)o1)N1CCc2[nH]cnc2[C@H]1c1cc2ccccc2cn1`: the AC50 is above 5 µM. For `Cc1c(-c2nnc(C(=O)N3C[C@@H](C)c4[nH]cnc4[C@@H]3c3cc4ccccc4cn3)o2)cnn1C`, the AC50 is 1 to 5 µM.

Take `C[C@@H]1CN(C(=O)c2nnc(C3(C)CC3)o2)[C@@H](c2cc3ccccc3cn2)c2nc[nH]c21`: the AC50 is 1 to 5 µM. On the same count and under the same terms, with `CC(C)(O)c1ccc2c(C(=O)N3CCc4[nH]cnc4C3c3ccc4ccccc4n3)cnn2c1` (centres unmarked) [listing 1 of 2 here] the figure was 1 to 5 µM; with `CC(C)(O)c1nc(C2CC2)c(C(=O)N2CCCc3[nH]cnc3C2c2cc3ccccc3cn2)o1` (centres unmarked), 1 to 5 µM. Consider `Cn1nc(C(=O)N2CCc3[nH]cnc3C2c2ccc3ccccc3n2)c2ccccc21` (centres unmarked), for which the AC50 lay within 1 to 5 µM. Same read-out and setting: with `O=C(c1n[nH]c2ccccc12)N1CCc2[nH]cnc2C1c1ccc2ccccc2n1` (centres unmarked) [listing 1 of 2 here] the figure was 1 to 5 µM. On the same count and under the same terms, with `O=C(c1nsc2ccccc12)N1CCc2[nH]cnc2C1c1ccc2ccccc2n1` (centres unmarked) the figure was above 5 µM. For the compound `O=C(c1cnco1)N1CCc2[nH]cnc2C1c1ccc2ccccc2n1` (centres unmarked) [listing 1 of 2 here], the AC50 was in the range of 1 to 5 µM.

Regarding `O=C(c1ocnc1-c1ccccn1)N1CCc2[nH]cnc2C1c1ccc2ccccc2n1` (centres unmarked), the AC50 is 1 to 5 µM. The same measure, in the same setting: with `CC(C)(O)c1ncc(C(=O)N2CCc3[nH]cnc3C2c2ccc3ccccc3n2)s1` (centres unmarked) [listing 1 of 2 here] the figure was 1 to 5 µM. On the same count and under the same terms, as for `CC(C)(O)c1ncc(C(=O)N2CCc3[nH]cnc3C2c2ccc3ccccc3n2)o1` (centres unmarked), the figure is 1 to 5 µM; as for `Cc1ncoc1C(=O)N1CCc2[nH]cnc2C1c1ccc2ccccc2n1` (centres unmarked), 1 to 5 µM; as for `FC(F)c1nnc(N2CCc3[nH]cnc3C2c2ccc3ccccc3n2)o1` (centres unmarked), 1 to 5 µM. The same measure, in the same setting: as for `Cc1nnc(C(=O)N2CCc3[nH]cnc3C2c2ccc3ccccc3n2)o1` (centres unmarked) [listing 1 of 2 here], the figure is 1 to 5 µM.

For `CC(C)(F)c1ccc2c(C(=O)N3CCc4[nH]cnc4C3c3ccc4ccccc4n3)cnn2c1` (centres unmarked) [listing 1 of 2 here], the AC50 fell in the range of 1 to 5 µM. For the compound `O=C(c1ncn2ccccc12)N1CCc2[nH]cnc2C1c1ccc2ccccc2n1` (centres unmarked) [listing 1 of 2 here], the AC50 lay in the range of 1 to 5 µM. The same measure, in the same setting: as for `O=C(c1cnn2ccccc12)N1CCc2[nH]cnc2C1c1ccc2ccccc2n1` (centres unmarked), the figure is 1 to 5 µM; as for `O=C(c1cncs1)N1CCc2[nH]cnc2C1c1cc2ccccc2cn1` (centres unmarked), above 5 µM; as for `Cc1nc(C(C)(C)F)oc1C(=O)N1CCc2[nH]cnc2C1c1cc2ccccc2cn1` (centres unmarked), 1 to 5 µM. The same measure, in the same setting: as for `Cc1nc(C(C)(C)C)oc1C(=O)N1CCc2[nH]cnc2C1c1cc2ccccc2cn1` (centres unmarked), the figure is 1 to 5 µM; as for `O=C(c1ocnc1C1CC1)N1CCCc2[nH]cnc2C1c1cc2ccccc2cn1` (centres unmarked), above 5 µM; as for `Cn1cc(-c2nc(C3CC3)c(C(=O)N3CCCc4[nH]cnc4C3c3cc4ccccc4cn3)o2)cn1` (centres unmarked), 1 to 5 µM. Still for that read-out and setting: as for `Cc1ncoc1C(=O)N1CCc2[nH]cnc2C1c1cc2ccccc2cn1` (centres unmarked), the figure is 1 to 5 µM; as for `FC(F)c1nnc(N2CCc3[nH]cnc3C2c2cc3ccccc3cn2)o1` (centres unmarked), above 5 µM; as for `O=C(c1nnc(-c2ccccn2)o1)N1CCCc2[nH]cnc2C1c1cc2ccccc2cn1` (centres unmarked), 1 to 5 µM. Regarding `FC(F)(F)c1cnc(N2CCc3[nH]cnc3C2c2cc3ccccc3cn2)nc1` (centres unmarked), the AC50 lay within 1 to 5 µM. On the same count and under the same terms, as for `Cc1nnc(C(=O)N2CC(C)(C)c3[nH]cnc3C2c2cc3ccccc3cn2)o1` (centres unmarked), the figure is 1 to 5 µM.

Turning to `CN(C)Cc1ccc2c(C(=O)N3CC(C)(C)c4[nH]cnc4C3c3cc4ccccc4cn3)cnn2c1` (centres unmarked), the AC50 is above 5 µM.

`CN(C)Cc1ccc2c(C(=O)N3CCc4[nH]cnc4C3c3ccc4ccccc4n3)cnn2c1` (centres unmarked) [listing 1 of 2 here]: the AC50 lay within 1 to 5 µM.

`O=C(c1ccn2ncccc12)N1CCc2[nH]cnc2C1c1ccc2ccccc2n1` (centres unmarked): the AC50 was in the range of 1 to 5 µM. Take `CC(C)(O)c1ccc2c(C(=O)N3CCc4[nH]cnc4C3c3cc4ccccc4cn3)cnn2c1` (centres unmarked): the AC50 is above 5 µM.

In the case of `CC(C)(O)c1ccc2c(C(=O)N3CCc4[nH]cnc4C3c3ccc4ccccc4n3)cnn2c1` (centres unmarked) [listing 2 of 2 here], the concentration at half-maximal activity (AC50) is above 5 µM.

With `O=C(c1n[nH]c2ccccc12)N1CCc2[nH]cnc2C1c1ccc2ccccc2n1` (centres unmarked) [listing 2 of 2 here], the AC50 was above 5 µM. Same read-out and setting: as for `O=C(c1cnco1)N1CCc2[nH]cnc2C1c1ccc2ccccc2n1` (centres unmarked) [listing 2 of 2 here], the figure is above 5 µM; as for `CC(C)(O)c1ncc(C(=O)N2CCc3[nH]cnc3C2c2cc3ccccc3cn2)o1` (centres unmarked), 1 to 5 µM.

In the case of `CC(C)(O)c1ncc(C(=O)N2CCc3[nH]cnc3C2c2ccc3ccccc3n2)s1` (centres unmarked) [listing 2 of 2 here], the AC50 was above 5 µM. On the same count and under the same terms, with `Cc1nnc(C(=O)N2CCc3[nH]cnc3C2c2ccc3ccccc3n2)o1` (centres unmarked) [listing 2 of 2 here] the figure was above 5 µM; with `CC(C)(F)c1ccc2c(C(=O)N3CCc4[nH]cnc4C3c3ccc4ccccc4n3)cnn2c1` (centres unmarked) [listing 2 of 2 here], above 5 µM; with `O=C(c1ncn2ccccc12)N1CCc2[nH]cnc2C1c1ccc2ccccc2n1` (centres unmarked) [listing 2 of 2 here], above 5 µM. On the same count and under the same terms, with `CN(C)Cc1ccc2c(C(=O)N3CCc4[nH]cnc4C3c3ccc4ccccc4n3)cnn2c1` (centres unmarked) [listing 2 of 2 here] the figure was above 5 µM; with `CN(C)Cc1ccc2c(C(=O)N3CC4(CC4)c4[nH]cnc4C3c3cc4ccccc4cn3)cnn2c1` (centres unmarked), 1 to 5 µM; with `C[C@H](O)c1nnc(C(=O)N2CCc3[nH]cnc3[C@H]2c2cc3ccccc3cn2)o1`, 1 to 5 µM. With `CC1CN(C(=O)c2nnc(N3CCC(F)CC3)o2)C(c2cc3ccccc3cn2)c2nc[nH]c21` (centres unmarked) [listing 1 of 3 here], the AC50 is 1 to 5 µM.

Take `CC1CN(C(=O)c2nnc(N3CCC(F)CC3)o2)C(c2cc3ccccc3cn2)c2nc[nH]c21` (centres unmarked) [listing 2 of 3 here]: the AC50 is 1 to 5 µM. Still for that read-out and setting: with `Cc1nnc(C(=O)N2CC(C)c3[nH]cnc3C2c2cc3ccccc3cn2)o1` (centres unmarked) the figure was 1 to 5 µM; with `CC1CN(C(=O)c2cnn3cc(CN(C)C)ccc23)C(c2cc3ccccc3cn2)c2nc[nH]c21` (centres unmarked), 1 to 5 µM; with `CC1CN(C(=O)c2nnc(N3CCC(F)CC3)o2)C(c2cc3ccccc3cn2)c2nc[nH]c21` (centres unmarked) [listing 3 of 3 here], above 5 µM. The same measure, in the same setting: as for `COC(=O)N1CC(C(=O)N2CCc3[nH]cnc3[C@H]2c2cc3ccccc3cn2)C1`, the figure is 1 to 5 µM.
